Measurements from paper PMC10847306, “The antibacterial activity and mechanism of a novel peptide MR-22 against multidrug-resistant Escherichia coli” (Frontiers in Cellular and Infection Microbiology, 2024).
Where two headings read alike, the source gives them in different places.

Experiments:
[1] = system: E. coli clinical strain E20; assay: microbe, parasite or virus in culture; conditions: clinical strain E20, 18 h
How it was run: (§1)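 Broth microdilution in Mueller-Hinton broth with a final inoculum of 1.0×10^6 CFU/mL, compound at final 1 ~ 256 μg/mL, incubated 37°C for 16~18 h. MIC read by OD600 nm; MBC taken as the lowest concentration showing no growth after plating clear wells on LB agar.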

[2] = system: E. coli clinical strain E02; assay: microbe, parasite or virus in culture; conditions: clinical strain E02, 18 h
How it was run: as §1

[3] = system: E. coli clinical strain E18; assay: microbe, parasite or virus in culture; conditions: clinical strain E18, 18 h
How it was run: as §1

[4] = system: E. coli clinical strain E01; assay: microbe, parasite or virus in culture; conditions: clinical strain E01, 18 h
How it was run: as §1

[5] = system: E. coli clinical strain E04; assay: microbe, parasite or virus in culture; conditions: clinical strain E04, 18 h
How it was run: as §1

[6] = system: E. coli clinical strain E03; assay: microbe, parasite or virus in culture; conditions: clinical strain E03, 18 h
How it was run: as §1

[7] = system: E. coli clinical strain E14; assay: microbe, parasite or virus in culture; conditions: clinical strain E14, 18 h
How it was run: as §1

[8] = system: E. coli clinical strain E10; assay: microbe, parasite or virus in culture; conditions: clinical strain E10, 18 h
How it was run: as §1

[9] = system: E. coli clinical strain E12; assay: microbe, parasite or virus in culture; conditions: clinical strain E12, 18 h
How it was run: as §1

[10] = system: E. coli clinical strain E08; assay: microbe, parasite or virus in culture; conditions: clinical strain E08, 18 h
How it was run: as §1

[11] = system: E. coli clinical strain E06; assay: microbe, parasite or virus in culture; conditions: clinical strain E06, 18 h
How it was run: as §1

[12] = system: E. coli clinical strain E16; assay: microbe, parasite or virus in culture; conditions: clinical strain E16, 18 h
How it was run: as §1

[13] = system: E. coli clinical strain E21; assay: microbe, parasite or virus in culture; conditions: clinical strain E21, 18 h
How it was run: as §1

[14] = system: E. coli clinical strain E13; assay: microbe, parasite or virus in culture; conditions: clinical strain E13, 18 h
How it was run: as §1

[15] = system: E. coli clinical strain E07; assay: microbe, parasite or virus in culture; conditions: clinical strain E07, 18 h
How it was run: as §1

[16] = system: E. coli clinical strain E17; assay: microbe, parasite or virus in culture; conditions: clinical strain E17, 18 h
How it was run: as §1

E. coli E19 [17] = assay: Time-kill assay; type: cell-based, Escherichia coli; conditions: 1 × MIC ('1 × MIC and 2 × MIC, respectively' for E19 and ATCC 25922), 1.0×10^6 CFU/mL, 37°C, colony counts
Procedure: (§2) The time-kill kinetics of MR-22 on E. coli were determined following the protocol described by ([Lu et al., 2022]). The bacterial suspensions (1.0×10^6 CFU/mL) were mixed with different concentrations of MR-22, then cultured at 37°C. The final concentrations of MR-22 ranged 1, 2, 4 ×MIC. At 0, 1, 2, 4, 6, 12, and 24 h, 10 μL aliquot samples were diluted in 90 μL PBS and 5 μL aliquot of the dilutions was spread onto LB agar plates. After incubation at 37°C for 24 h, the colony counts were determined and the time-killing curve was plotted.

E. coli ATCC 25922 [18] = assay: Time-kill assay; type: cell-based, Escherichia coli; conditions: 2 × MIC ('1 × MIC and 2 × MIC, respectively' for E19 and ATCC 25922), 1.0×10^6 CFU/mL, 37°C, colony counts
Procedure: as §2

[19] = system: E. coli ATCC 25922 and E19; assay: Intracellular ATP determination; type: cell-based, Escherichia coli; conditions: MR-22 1, 2, 4 × MIC, 1 h, 37°C; compared to the control group; dose-dependent
Procedure: The MR-22 solution was added to bacterial suspensions (1.0 × 10^6 CFU/mL) at different final concentrations (1, 2, 4 × MIC) incubated at 37°C for 1 h. The mixture was subsequently centrifuged and the resulting supernatants were collected. Finally, the intracellular ATP concentration was determined using an ATP Assay Kit (Beyotime, China) according to the manufacturer’s instruction.

E. coli E19 [20] = type: cell-based, Escherichia coli; conditions: 1 μg/ml trypsin, 37°C, mean ± SD
Procedure: (§3) MR-22 was mixed with a solution containing 1 μg/ml of trypsin and incubated at 37°C for 2 to 12h. Then, trypsin inactivation was carried out at 60°C for 30 min. The antimicrobial activity of the samples was tested to assess the activity of MR-22 and its analogs after the treatment by trypsin. The untreated MR-22 served as the control group for comparative analysis.

E. coli ATCC 25922 [21] = type: cell-based, Escherichia coli; conditions: 1 μg/ml trypsin, 37°C, mean ± SD
Procedure: as §3

H-MAKRRKKAKKKAKKAKKRRRRR-NH2 [MR-22] showed an MBC [1] of 8 µg/mL, an MIC [1] of 8 µg/mL and an MBC [2] of 16 µg/mL. The MIC [2] was 16 µg/mL, the MBC [3] was 8 µg/mL and the MIC [3] was 8 µg/mL. For the same substance, the MBC [4] was 16 µg/mL, the MIC [4] was 16 µg/mL and the MBC [5] was 8 µg/mL. It also gave an MIC [5] of 8 µg/mL, an MBC [6] of 16 µg/mL and an MIC [6] of 16 µg/mL. It also gave an MBC [7] of 16 µg/mL, an MIC [7] of 16 µg/mL and an MBC [8] of 16 µg/mL. It also gave an MIC [8] of 16 µg/mL, an MBC [9] of 16 µg/mL and an MIC [9] of 16 µg/mL. It also gave an MBC [10] of 8 µg/mL, an MIC [10] of 8 µg/mL and an MBC [11] of 8 µg/mL. The MIC [11] was 8 µg/mL, the MBC [12] was 16 µg/mL and the MIC [12] was 16 µg/mL. For the same substance, the MBC [13] was 8 µg/mL, the MIC [13] was 8 µg/mL and the MBC [14] was 16 µg/mL. It also gave an MIC [14] of 16 µg/mL, an MBC [15] of 16 µg/mL and an MIC [15] of 16 µg/mL. For the same substance, the MBC [16] was 32 µg/mL, the MIC [16] was 32 µg/mL and the “time to eliminate the bacteria (time-kill)” value (E. coli E19 [17]) was at most 2 h. For the same substance, the “time to eliminate the bacteria (time-kill)” value (E. coli ATCC 25922 [18]) was at most 2 h, the “intracellular ATP concentration” value [19] was “significantly reduced” and the “Rate of inhibition after incubation with trypsin” value (“Rate of inhibition” for short) (E. coli E19 [20]; 4 h) was 17.74 ± 2.88%. The “Rate of inhibition” value (E. coli E19 [20]; 8 h) was 5.41 ± 1.20%, the “Rate of inhibition” value (E. coli E19 [20]; 10 h) was 4.49 ± 1.54% and the “Rate of inhibition” value (E. coli E19 [20]; 12 h) was 0.64 ± 0.46%. The “Rate of inhibition” value (E. coli ATCC 25922 [21]; 4 h) was 22.32 ± 1.71%, the “Rate of inhibition” value (E. coli ATCC 25922 [21]; 8 h) was 3.40 ± 0.26% and the “Rate of inhibition” value (E. coli ATCC 25922 [21]; 10 h) was 1.85 ± 0.18%. The “Rate of inhibition” value (E. coli ATCC 25922 [21]; 12 h) was 1.33 ± 0.22%.
